# Results published in US4605674A, “Substituted acetophenones and compositions containing them” (Hoffmann-La Roche Inc., priority 1979, dated 1986).
# Read-outs that look alike come from different tables or passages of the source.
# What was measured:
# in vivo = settings: mouse, DDY mice, single dose
# Method: ^(1) DDY mice weighing 15-20 g were treated with a single dose of the
# compound. Survivors were recorded on day 21.
# ^(2) Compounds were dissolved in dimethylsulfoxide.
# ^(3) Compounds were suspended with solution of 0.5% carboxymethyl
# Coxsackievirus B1 = assay: In vivo antiviral activity against lethal infection with Coxsackievirus B1 in mice; design: species or system DDY mice; settings: up to 21 days
# Method: The activity of the compounds against lethal infection with Coxsackievirus B1 was tested in mice. DDY mice weighing about 15 g were infected intraperitoneally with about the tenfold LD50 dose of the virus. The infected mice were treated 9 times with the compounds either orally 0, 2, 5, 18, 24, 42, 48, 66 and 72 hours or intraperitoneally 1, 2, 4, 18 and 28 hours after infection. The survivals were recorded up to 21 days.
# Non-treated (controls) mice died at 3 to 5 days after infection.
# rhinovirus HGP = assay: Inhibition of viral cytopathogenic effect (c.p.e.) of rhinovirus HGP in HeLa cells; type: cell-based, human rhinoviruses; settings: Enterovirus, HeLa, 48 h, read-out: IC50 against rhinovirus HGP (concentration inhibiting the viral c.p.e. by 50%)
# Method: A suspension of HeLa cells (6×10^4) was mixed with rhinovirus HGP (3×10^3 plaque forming units, PFU) and was plated in a microtest plate containing the compounds to be tested serially diluted. The cells were then cultured with Eagle's minimum essential medium containing 2% calf serum, 1% tryptose phosphate broth, 100 μg/ml of streptomycin sulfate and 20 unit/ml of penicillin G. Viral c.p.e. (cytopathogenic effect) was observed by a microscope after 2 days culture at 33° C.
# The antiviral activity of the tested compounds is expressed by the concentration inhibiting the viral c.p.e. by 50% when compared to the control culture (IC50).
# HeLa cells = assay: Cytotoxic symptoms in HeLa cells in the viral replication test; type: cell-based
# Method: Effect of 2'-hydroxy-4,4',6'-trimethoxychalcone on the replication of rhinovirus HGP in HeLa cells was tested. Monolayers of HeLa cells (4×10^5) to which 2'-hydroxy-4,4',6'-trimethoxychelcone at various concentrations had been added were infected with rhinovirus HGP (4×10^4 PFU) for 60 minutes. Thereafter, the cells were washed with Eagle's minimum essential medium and further cultured with said medium containing 2% calf serum, 1% tryptose phosphate broth, 100 μg/ml of streptomycin sulfate and 20 units/ml of penicillin G. The total yield of the virus replicated in the culture medium was assayed 2 days after infection.
# In the same manner the effect of 4'-ethoxy-2'-hydroxy-4,6'-dimethoxychalcone on the replication of rhinovirus type 21 in HeLa cells was tested.
# [1] = ip, i.p., dissolved in dimethylsulfoxide, day 21, read-out: LD50 i.p.
# [2] = po, p.o., suspended in 0.5% carboxymethyl cellulose, day 21, read-out: LD50 p.o.
# [3] = 20 mg/kg × 9, p.o., control 20%
# [4] = 40 mg/kg × 9, p.o., control 20%
structure (smiles),measurement,setting,value
"CCC(=O)Oc1cc(OC)cc(OC)c1C(=O)/C=C/c1ccc(OC)cc1 [2',4,4'-trimethoxy-6'-(propionyloxy)chalcone]",LD50 at 504 h,in vivo; [1],> 500 mg/kg
same,LD50 at 504 h,in vivo; [2],> 5000 mg/kg
same,Survival,"Coxsackievirus B1; 20 mg/kg × 5, i.p., control 0%",25%
same,Survival,"Coxsackievirus B1; 40 mg/kg × 5, i.p., control 0%",75%
same,IC50,rhinovirus HGP,0.01 µg/mL
"COc1ccc(/C=C/C(=O)c2c(OC)cc(OC)cc2OC(C)=O)cc1 [2'-acetoxy-4,4',6'-trimethoxychalcone]",LD50 at 504 h,in vivo; [1],> 1000 mg/kg
same,LD50 at 504 h,in vivo; [2],> 5000 mg/kg
same,Survival,Coxsackievirus B1; [3],40%
same,Survival,"Coxsackievirus B1; 40 mg/kg × 5, i.p., control 0%",50%
same,Survival,Coxsackievirus B1; [4],70%
same,IC50,rhinovirus HGP,0.006 µg/mL
"COc1cc(O)c(C(=O)C=Cc2cccs2)c(OC)c1 [2'-hydroxy-4',6'-dimethoxy-3-(2-thienyl)-acrylophenone]",LD50 at 504 h,in vivo; [1],> 1000 mg/kg
same,LD50 at 504 h,in vivo; [2],> 5000 mg/kg
same,Survival,Coxsackievirus B1; [3],30%
same,Survival,Coxsackievirus B1; [4],70%
same,IC50,rhinovirus HGP,0.03 µg/mL
"COc1ccc(/C=C/C(=O)c2c(O)cc(OC)cc2OC)cc1 [2'-hydroxy-4,4',6'-trimethoxychalcone]",cytotoxic symptom,"HeLa cells; 0.1-1.0 μg/ml, rhinovirus HGP test",without showing any cytotoxic symptom
same,LD50 at 504 h,in vivo; [1],> 1000 mg/kg
same,LD50 at 504 h,in vivo; [2],> 5000 mg/kg
same,Survival,Coxsackievirus B1; [3],40%
same,Survival,Coxsackievirus B1; [4],60%
same,IC50,rhinovirus HGP,0.01 µg/mL
"CCCOc1cc(OC)cc(O)c1C(=O)/C=C/c1ccc(OC)cc1 [2'-hydroxy-4,4'-dimethoxy-6'-propoxychalcone]",LD50 at 504 h,in vivo; [1],> 500 mg/kg
same,LD50 at 504 h,in vivo; [2],> 1500 mg/kg
same,IC50,rhinovirus HGP,0.06 µg/mL
"COc1ccc(/C=C/C(=O)c2ccc(OC)cc2O)cc1 [2'-hydroxy-4,4'-dimethoxychalcone]",LD50 at 504 h,in vivo; [1],> 1000 mg/kg
same,LD50 at 504 h,in vivo; [2],> 2500 mg/kg
same,IC50,rhinovirus HGP,0.3 to 1 µg/mL
"COc1ccc(/C=C/C(=O)c2c(O)cc(OC)cc2OC(C)C)cc1 [2'-hydroxy-6'-isopropoxy-4,4'-dimethoxychalcone]",LD50 at 504 h,in vivo; [1],> 500 mg/kg
same,LD50 at 504 h,in vivo; [2],> 2700 mg/kg
same,IC50,rhinovirus HGP,0.1 to 0.2 µg/mL
"CCC(=O)Oc1cc(OC)cc(OC(C)C)c1C(=O)/C=C/c1ccc(OC)cc1 [2'-isopropoxy-4,4'-dimethoxy-6'-(propionyloxy)chalcone]",LD50 at 504 h,in vivo; [1],> 500 mg/kg
same,LD50 at 504 h,in vivo; [2],> 1000 mg/kg
same,IC50,rhinovirus HGP,0.01 to 0.03 µg/mL
"COc1cc(O)c(C(=O)/C=C/c2cccc(OC)c2O)c(OC)c1 [2,2'-dihydroxy-3,4',6'-trimethoxychalcone]",LD50 at 504 h,in vivo; [1],> 500 mg/kg
same,LD50 at 504 h,in vivo; [2],> 1000 mg/kg
same,IC50,rhinovirus HGP,0.15 to 0.5 µg/mL
"CCC(=O)Oc1cc(OC)cc(OC)c1C(=O)C=Cc1ccco1 [3-(2-furyl)-2',4'-dimethoxy-6'-(propionyloxy)-acrylophenone]",LD50 at 504 h,in vivo; [1],> 500 mg/kg
same,LD50 at 504 h,in vivo; [2],> 1000 mg/kg
same,IC50,rhinovirus HGP,0.1 to 0.3 µg/mL
"COc1cc(O)c(C(=O)C=Cc2ccco2)c(OC)c1 [3-(2-furyl)-2'-hydroxy-4',6'-dimethoxyacrylophenone]",LD50 at 504 h,in vivo; [1],> 500 mg/kg
same,LD50 at 504 h,in vivo; [2],> 1500 mg/kg
same,IC50,rhinovirus HGP,0.06 to 0.2 µg/mL
"CCOc1cc(O)c(C(=O)/C=C/c2ccc(OC)cc2)c(OC)c1 [4'-ethoxy-2'-hydroxy-4,6'-dimethoxychalcone]",cytotoxic symptom,"HeLa cells; 0.03 μg/ml, rhinovirus type 21 test",without showing any cytotoxic symptom
same,LD50 at 504 h,in vivo; [1],> 1000 mg/kg
same,LD50 at 504 h,in vivo; [2],> 5000 mg/kg
same,IC50,rhinovirus HGP,0.002 to 0.006 µg/mL
CCOc1cc(O)c(C(=O)C=Cc2ccc(C)o2)c(OC)c1 [4'-ethoxy-2'-hydroxy-6'-methoxy-3-(5-methyl-2-furyl)-acrylophenone],LD50 at 504 h,in vivo; [1],> 500 mg/kg
same,LD50 at 504 h,in vivo; [2],> 1000 mg/kg
same,IC50,rhinovirus HGP,0.03 µg/mL
"CCOc1ccc(/C=C/C(=O)c2c(O)cc(OCC)cc2OC)cc1 [4,4'-diethoxy-2'-hydroxy-6'-methoxychalcone]",LD50 at 504 h,in vivo; [1],> 500 mg/kg
same,LD50 at 504 h,in vivo; [2],> 1000 mg/kg
same,IC50,rhinovirus HGP,0.006 to 0.02 µg/mL
"CCCOc1cc(OC)cc(OC(=O)CC)c1C(=O)/C=C/c1ccc(OC)cc1 [4,4'-dimethoxy-2'-(propionyloxy)-6'-propoxychalcone]",LD50 at 504 h,in vivo; [1],> 500 mg/kg
same,LD50 at 504 h,in vivo; [2],> 1000 mg/kg
same,IC50,rhinovirus HGP,0.03 to 0.1 µg/mL
"C=CCOc1ccc(/C=C/C(=O)c2c(OC)cc(OC)cc2OC(=O)CC)cc1 [4-(allyloxy)-2',4'-dimethoxy-6'-(propionyloxy)-chalcone]",LD50 at 504 h,in vivo; [1],> 500 mg/kg
same,LD50 at 504 h,in vivo; [2],> 1000 mg/kg
same,IC50,rhinovirus HGP,0.03 to 0.1 µg/mL
"C=CCOc1ccc(/C=C/C(=O)c2c(O)cc(OC)cc2OC)cc1 [4-(allyloxy)-2'-hydroxy-4',6'-dimethoxychalcone]",LD50 at 504 h,in vivo; [1],> 500 mg/kg
same,LD50 at 504 h,in vivo; [2],> 1000 mg/kg
same,IC50,rhinovirus HGP,0.03 to 0.1 µg/mL
"COc1cc(O)c(C(=O)/C=C/c2ccc(OCc3ccccc3)c(OC)c2)c(OC)c1 [4-(benzyloxy)-2'-hydroxy-3,4',6'-trimethoxychalcone]",LD50 at 504 h,in vivo; [1],> 500 mg/kg
same,LD50 at 504 h,in vivo; [2],> 1500 mg/kg
same,IC50,rhinovirus HGP,1 µg/mL
"CCC(=O)Oc1cc(OC)cc(OC)c1C(=O)/C=C/c1ccc(Cl)cc1 [4-chloro-2',4'-dimethoxy-6'-(propionyloxy)-chalcone]",LD50 at 504 h,in vivo; [1],> 1000 mg/kg
same,LD50 at 504 h,in vivo; [2],> 5000 mg/kg
same,IC50,rhinovirus HGP,0.1 to 0.3 µg/mL
"COc1cc(O)c(C(=O)/C=C/c2ccc(Cl)cc2)c(OC)c1 [4-chloro-2'-hydroxy-4',6'-dimethoxychalcone]",LD50 at 504 h,in vivo; [1],> 1000 mg/kg
same,LD50 at 504 h,in vivo; [2],> 5000 mg/kg
same,IC50,rhinovirus HGP,0.02 to 0.06 µg/mL
"COc1cc(O)c(C(=O)/C=C/c2ccc(C#N)cc2)c(OC)c1 [4-cyano-2'-hydroxy-4',6'-dimethoxychalcone]",LD50 at 504 h,in vivo; [1],> 500 mg/kg
same,LD50 at 504 h,in vivo; [2],> 1000 mg/kg
same,IC50,rhinovirus HGP,0.3 µg/mL
"CCOc1ccc(/C=C/C(=O)c2c(OC)cc(OC)cc2OC(=O)CC)cc1 [4-ethoxy-2',4'-dimethoxy-6'-(propionyloxy)-chalcone]",LD50 at 504 h,in vivo; [1],> 1000 mg/kg
same,LD50 at 504 h,in vivo; [2],> 5000 mg/kg
same,IC50,rhinovirus HGP,0.03 to 0.1 µg/mL
"CCOc1ccc(/C=C/C(=O)c2c(O)cc(OC)cc2OC)cc1 [4-ethoxy-2'-hydroxy-4',6'-dimethoxychalcone]",LD50 at 504 h,in vivo; [1],> 1000 mg/kg
same,LD50 at 504 h,in vivo; [2],> 5000 mg/kg
same,IC50,rhinovirus HGP,0.02 to 0.05 µg/mL
